Here are results for ten molecules from patent US11555820B2, “Nanohoop compounds for use in biotechnology and methods of making and using the same” (University of Oregon, priority 2017, dated 2023).

Molecules are shown by their SMILES.

The nature of series [1]: Photophysical properties of meta-substituted nanohoops (absorption, emission, extinction coefficient, quantum yield). Format: physicochemical. The note with it: for εAmax × ΦAmax (brightness) / εH→L: [n]mCPP; for Emission / Max Abs / ΦAmax (fluorescence quantum yield) / εAmax: dichloromethane; for ΦAmax (fluorescence quantum yield): room temperature; for εAmax: extinction coefficient at the absorbance maximum; for CPP ε × Φ (brightness): all-para [n]CPP with the same number of rings; for εH→L: extinction coefficient of the HOMO→LUMO transition. As for the experimental part: In the following examples, all glassware was flame dried and cooled under an inert atmosphere of nitrogen unless otherwise noted. Moisture sensitive reactions were carried out under nitrogen atmosphere using Schlenk and standard syringe/septa techniques. Tetrahydrofuran, dichloromethane, dimethylformamide and 1,4-dioxane were dried by filtration through alumina according to the methods describes by Grubbs. Silica column chromatography was conducted with Zeochem Zeoprep 60 Eco 40-63 μm silica gel. Automated flash chromatography was performed using a Biotage Isolera One. Recycling gel permeation chromatography (GPC) was performed using a Japan Analytical Industry LC-9101 preparative HPLC with JAIGEL-1H/JAIGEL-2H columns in series using CHCl3. Thin Layer Chromatography (TLC) was performed using Sorbent Technologies Silica Gel XHT TLC plates. Developed plates were visualized using UV light at wavelengths of 254 and 365 nm. ^1H NMR spectra were recorded at 500 MHz or 600 MHz on a Bruker Advance-II-HD NMR spectrometer. ^13C NMR spectra were recorded 150 MHz on a Bruker Advance-III-HD NMR spectrometer. All ^1H NMR spectra were taken in CDCl3 (referenced to TMS, δ 0.00 ppm) or DMSO-d6 (referenced to residual DMSO, δ 2.50 ppm). All ^13C NMR spectra were taken in CDCl3 (referenced to chloroform, δ 77.16 ppm) or DMSO-d6 (referenced to DMSO, δ 39.52 ppm). Absorbance and fluorescence spectra were obtained in a 1 cm Quartz cuvette with dichloromethane using an Agilent Cary 100 UV-Vis spectrometer and a Horiba Jobin Yvon Fluoromax-4 Fluorimeter. Fluorescent quantum yield was measured in dichloromethane at room temperature using a Hamamatsu absolute PL quantum yield measurement system. Electrochemical experiments were performed using a Biologic SP-50 potentiostat with a Ag wire reference electrode, Pt wire counter electrode, and glassy carbon working electrode under nitrogen atmosphere in 100 mM solutions of Bu4NPF6 in DCM with ferrocene as a reference. All reagents were obtained commercially unless otherwise noted. Compounds para-benzoquinone mono-methyl ketal, compound A, compound B, PPh3 Pd Gen III, and SPhos Pd Gen 1115 were prepared according to literature procedure.
In this example, the photophysical properties of nanohoop compound embodiments comprising meta-substitution (wherein the meta-substitution refers to the fact that one of the rings of the nanohoop skeleton is connected to other rings of the nanohoop skeleton via bonds that are meta-substituted relative to each other) was evaluated. It was determined that disrupting the conjugation of the nanohoop allows the HOMO→LUMO absorption and “turns on” the fluorescence in the smaller sizes (e.g., 6-membered and 5-membered nanohoops). The absorption and emission data as well as extinction coefficients and quantum yields were collected. […] Two absorption transitions can be seen in for the smaller sizes, but the second transition blue-shifts and overlaps with the absorption at 328 nm for [10]- and [12]mCPP. The extinction coefficient of the higher energy transition is larger than that of the lower energy transition in all cases (Table 10). […] Graphs showing the extinction coefficient determination of [5]mCPP at the absorbance maxima and HOMO→LUMO transition are provided in FIGS. 10A and 10B, respectively. Graphs showing the extinction coefficient determination of [6]mCPP at the absorbance maxima and HOMO→LUMO transition are provided in FIGS. 11A and 11B, respectively. Graphs showing the extinction coefficient determination of [7]mCPP at the absorbance maxima and HOMO→LUMO transition are provided in FIGS. 12A and 12B, respectively. Graphs showing the extinction coefficient determination of [8]mCPP at the absorbance maxima and HOMO→LUMO transition are provided in FIGS. 13A and 13B, respectively. Graphs showing the extinction coefficient determination of [10]mCPP and [12]mCPP at the absorbance maxima are provided in FIGS. 14 and 15, respectively. […]

Another series relates to HeLa cells. Nature of the series: Colorimetric CCK-8 viability assay of HeLa cells. Format: cell-based. The following applies: [12]CPP 0.25-1 uM, [8]CPP 0.5-2 uM, 5 wt percent Pluronic F108 in DMEM. The protocol: HeLa cells were treated with varying concentrations of [8]CPP and [12]CPP in the presence of 5 wt percent Pluronic F108 in DMEM, and their viability was measured using a colorimetric CCK-8 assay (purchased from Dojindo and performed following the assay instructions). Briefly, the cells were treated with the nanohoop compound and the tetrazolium salt WST-8 at each concentration for 2 hours at 37 degrees Celsius, and the optical density of the cells was subsequently measured at 450 nm. The viability of cells treated with the [12]CPP and [8]CPP compounds is illustrated in FIGS. 1 and 2, respectively.
In this example, HeLa cells were treated with the disulfonated[8]CPP nanohoop Compound 1 at concentrations of 5 uM, 10 uM, 25 uM, 50 uM and 100 uM and their viability was measured using a standard colorimetric CCK-8 assay, as described above for Example 1. The percentage of living cells remaining after exposure to various concentrations of Compound 1 is illustrated in the graph shown in FIG. 3.
A general note: Tetrazolium dyes change colour on reduction, which living cells bring about.

The conditions of series [2]: all-para [n]CPP, n≤7; cited from earlier work.

As to `c1cc2cc(c1)-c1ccc(cc1)-c1ccc(cc1)-c1ccc(cc1)-c1ccc(cc1)-c1ccc(cc1)-c1ccc(cc1)-c1ccc(cc1)-c1ccc(cc1)-c1ccc-2cc1` [[10]mCPP], in series [1], the “εAmax × ΦAmax (brightness)” value is 5.2 × 10^4, the Emission turned out to be 456 nm, the “Max Abs” value was determined as 328 nm and the “ΦAmax (fluorescence quantum yield)” value worked out at 0.726. Further, the εAmax in series [1] is recorded as 7.1 × 10^4 ± 0.2 M^−1cm^−1. Besides, the “overall brightness versus commercial fluorophores (in words)” value in series [1] (compared with DAPI and Rhodamine 110) was “brighter than many commercial fluorophores”.
For `c1cc2ccc1=c1ccc(cc1)=c1ccc(cc1)=c1ccc(cc1)=c1ccc(cc1)=c1ccc(cc1)=c1ccc(cc1)=c1ccc=2cc1` [[8]CPP, reference compound], the “toxicity to HeLa cells (in words)” value in the series on HeLa cells was “not toxic”. Moreover, in series [1], the “CPP ε × Φ (brightness)” value is on record as 1.0 × 10^4.
On to `O[C@]12C=C[C@](O)(CC1)c1ccc(cc1)-c1ccc(cc1)[C@]1(O)C=C[C@@H](C=C1)c1ccc(cc1)-c1cccc(c1)-c1ccc2cc1` [[7]mCPP], for which the “H→L Absorbance” value in series [1] (HOMO→LUMO transition) was 394 nm. In series [1], the “εAmax × ΦAmax (brightness)” value was 2.3 × 10^4, the Emission is reported as 491 nm, the “Max Abs” value is listed as 328 nm and the “ΦAmax (fluorescence quantum yield)” value is reported as 0.450. In series [1], the εAmax was 5.1 × 10^4 ± 0.09 M^−1cm^−1 and the εH→L was 9.9 × 10^3 ± 0.08 M^−1cm^−1.
`c1cc2ccc1-c1ccc(cc1)-c1ccc(cc1)-c1ccc(cc1)-c1ccc(cc1)-c1ccc(cc1)-c1ccc(cc1)-c1ccc(cc1)-c1ccc(cc1)-c1ccc(cc1)-c1ccc(cc1)-c1ccc-2cc1` [[12]CPP, reference compound]: the “toxicity to HeLa cells (in words)” value with HeLa cells was “not toxic”. The “CPP ε × Φ (brightness)” value in series [1] was 1.4 × 10^5.
In the case of `c1cc2ccc1-c1ccc(cc1)-c1ccc(cc1)-c1ccc(cc1)-c1ccc(cc1)-c1ccc(cc1)-c1ccc(cc1)-c1ccc(cc1)-c1ccc(cc1)-c1ccc-2cc1` [[10]CPP, reference compound], the “CPP ε × Φ (brightness)” value in series [1] was 8.5 × 10^4.
Regarding `c1cc2ccc1=c1ccc(cc1)=c1ccc(cc1)=c1ccc(cc1)=c1ccc(cc1)=c1ccc=2cc1` [[6]CPP, reference compound], the “CPP ε × Φ (brightness)” value in series [1] came out at 0. Besides, the “fluorescence of para-substituted CPP (in words)” value (from here on “fluorescence … (in words)”) in series [2] is listed as “no fluorescence”.
For `c1cc2ccc1=c1ccc(cc1)=c1ccc(cc1)=c1ccc(cc1)=c1ccc=2cc1` [[5]CPP, reference compound], in series [1] (all-para [5]CPP, HOMO→LUMO transition), the “absorption (extinction coefficient) compared with [5]mCPP” value came out at 450 M⁻¹ cm⁻¹. Moreover, in series [1], the “CPP ε × Φ (brightness)” value turned out to be 0. In addition, in series [2], the “fluorescence … (in words)” value is reported as “no fluorescence”.
With `CO[C@]12C=C[C@](O)(C=C1)c1ccc(cc1)-c1cccc(c1)-c1ccc(cc1)[C@]1(O)C=C[C@@](OC)(C=C1)C1C=CC(=CC1)[C@]1(O)C=C[C@@](O)(CC1)[C@H]1C=CC2=CC1` [[8]mCPP], the “H→L Absorbance” value in series [1] (HOMO→LUMO transition) amounted to 376 nm. Moreover, in series [1], the “εAmax × ΦAmax (brightness)” value is given as 3.7 × 10^4, the Emission is on record as 484 nm, the “Max Abs” value worked out at 326 nm and the “ΦAmax (fluorescence quantum yield)” value was 0.595. Moreover, in series [1], the εAmax is 6.2 × 10^4 ± 0.9 M^−1cm^−1 and the εH→L is recorded as 1.4 × 10^4 ± 0.1 M^−1cm^−1.
For the molecule `O[C@]12C=C[C@](O)(C=C1)c1ccc(cc1)[C@]1(O)C=C[C@@](O)(C=C1)c1ccc(cc1)-c1cccc(c1)[C@@H]1C=CC2=CC1` [[6]mCPP], the “H→L Absorbance” value in series [1] (HOMO→LUMO transition) is on record as 410 nm. For the same molecule, in series [1], the “εAmax × ΦAmax (brightness)” value was 1.2 × 10^4, the Emission was found to be 510 nm, the “Max Abs” value is reported as 328 nm and the “ΦAmax (fluorescence quantum yield)” value is on record as 0.224. In series [1], the εAmax is on record as 5.4 × 10^4 ± 0.3 M^−1cm^−1 and the εH→L is recorded as 9.4 × 10^3 ± 0.5 M^−1cm^−1.
Take `c1cc2ccc1-c1ccc(cc1)-c1ccc(cc1)-c1ccc(cc1)-c1ccc(cc1)-c1ccc(cc1)-c1ccc-2cc1` [[7]CPP, reference compound]: the “CPP ε × Φ (brightness)” value in series [1] is 4.8 × 10^2. In addition, in series [2], the “fluorescence … (in words)” value is on record as “only weak fluorescence”.
